The text below walks through data of ChEMBL document CHEMBL1147301, “Studies on inhibitors of skin-tumor promotion. Inhibitory effects of triterpenes from Cochlospermum tinctorium on Epstein-Barr virus activation” (J Nat Prod, 1989).

The test system of experiment [1] is Raji. The experiment is described as follows: Inhibition of 12-O-tetradecanoylphorbol-13-acetate-induced EBV-early antigen activation in human Raji cells assessed as early antigen activation at 4 mM ratio relative to TPA. Format: cell-based. Also noted: scale not given: the % may be the effect or the level left. The settings on record: human gammaherpesvirus 4.

Experiment [2] has as its system Raji. The experiment in a line: Inhibition of EBV-early antigen activation in human Raji cells assessed as early antigen activation at 4 mM. The class given is cell-based. Also noted: scale not given: the % may be the effect or the level left. Particulars: human gammaherpesvirus 4.

For `CCCC(=O)O`, the Activity in the experiment with Raji [1] stood at 34.5%; in the experiment on Raji [2], 0.1%.
